Laboratory results: patent US9232795B2, “Herbicidal compositions comprising 4-amino-3-chloro-6-(4-chloro-2-fluoro-3-methoxyphenyl) pyridine-2-carboxylic acid or a derivative thereof and flurtamone” (Dow AgroSciences LLC, priority 2012, dated 2016)

Assays:
Type in all cases: in vivo
Euphorbia heterohylla L. = experiment: greenhouse trial, foliar applied compositions, EPHHL (wild poinsettia)
Text: (§1) More specifically, the following equation is used to calculate the expected activity of mixtures containing two herbicidal active ingredients: Expected=A+B−(A×B/100) A=observed efficacy of a first active ingredient at the same concentration as used in the mixture; B=observed efficacy of the second active ingredient (or product, which may contain a combination of active ingredients) at the same concentration as used in the mixture. For mixtures containing three herbicidal active ingredients, the following equation can be used to calculate the expected activity: Expected=100−[(100−A)(100−B)(100−C)/10,000] A=observed efficacy of a first active ingredient at the same concentration as used in the mixture; B=observed efficacy of a second active ingredient B at the same concentration as used in the mixture; C=observed efficacy of a third active ingredient C at the same concentration as used in the mixture.
(§2) Results in Tables 1-12 are greenhouse trial results for foliar applied compositions.
(§3) g/ha=grams acid equivalent per hectare for Cmpd 1 and grams active ingredient per hectare for flurtamone, flufenacet, and diflufenican Obs=observed value Exp=expected value as calculated by the equations set forth above. Cmpd 1=methyl 4-amino-3-chloro-6-(4-chloro-2-fluoro-3-methoxyphenyl)-pyridine-2-carboxylate

Ipomoea hederacea = experiment: greenhouse trial, foliar applied compositions, IPOHE (ivyleaf morningglory)
Text: as §1, §2, §3

[1] = system: Stellaria media (L.) Vill.; experiment: greenhouse trial, foliar applied compositions, STEME (common chickweed)
Text: as §1, §2, §3

Viola tricolor L. = experiment: greenhouse trial, foliar applied compositions, VIOTR (wild violet)
Text: as §1, §2, §3

Chenpodium album L. = experiment: greenhouse trial, foliar applied compositions, CHEAL (common lambsquarters)
Text: as §1, §2, §3

[2] = system: Abutilon theophrasti Medik.; experiment: greenhouse trial, foliar applied compositions, ABUTH (velvetleaf)
Text: as §1, §2, §3

[3] = system: Triticum aestivum (spring); experiment: greenhouse trial, foliar applied compositions, TRZAS (spring wheat)
Text: as §1, §2, §3

[4] = system: Amaranthus retroflexus L.; experiment: greenhouse trial, foliar applied compositions, AMARE (redroot pigweed)
Text: as §1, §2, §3

Cyperus esculentus L. = experiment: greenhouse trial, foliar applied compositions, CYPES (yellow nutsedge)
Text: as §1, §2, §3

[5] = system: Cirsium arvense (L.) Scop.; experiment: greenhouse trial, foliar applied compositions, CIRAR (Canada thistle)
Text: as §1, §2, §3

Setaria faberi Herrm. = experiment: greenhouse trial, foliar applied compositions, SETFA (giant foxtail)
Text: as §1, §2, §3

[6] = foliar applied, Cmpd 1 5.00 g/ha

For CNC1=C(c2cccc(C(F)(F)F)c2)C(=O)C(c2ccccc2)O1 (racemic) [Flurtamone, (±)-5-(methylamino)-2-phenyl-4-[3-(trifluoromethyl)phenyl]-3(2H)-furanone], the “EPHHL Obs” value (Euphorbia heterohylla L.; Flurtamone 62.5 g/ha) was 25, the “EPHHL Obs” value (Euphorbia heterohylla L.; Flurtamone 125 g/ha) was 40 and the “IPOHE Obs” value (Ipomoea hederacea; Flurtamone 62.5 g/ha) was 25. For the same molecule, the “IPOHE Obs” value (Ipomoea hederacea; Flurtamone 125 g/ha) was 33, the “STEME Obs” value ([1]; Flurtamone 62.5 g/ha) was 20 and the “STEME Obs” value ([1]; Flurtamone 125 g/ha) was 30. The “VIOTR Obs” value (Viola tricolor L.; Flurtamone 62.5 g/ha) was 25, the “VIOTR Obs” value (Viola tricolor L.; Flurtamone 125 g/ha) was 30 and the “CHEAL Obs” value (Chenpodium album L.; Flurtamone 62.5 g/ha) was 25. For the same molecule, the “CHEAL Obs” value (Chenpodium album L.; Flurtamone 125 g/ha) was 40, the “ABUTH Obs” value ([2]; Flurtamone 62.5 g/ha) was 40 and the “ABUTH Obs” value ([2]; Flurtamone 125 g/ha) was 63. The “TRZAS Obs” value ([3]; Flurtamone 62.5 g/ha) was 0, the “TRZAS Obs” value ([3]; Flurtamone 125 g/ha) was 0 and the “AMARE Obs” value ([4]; Flurtamone 62.5 g/ha) was 40. The “AMARE Obs” value ([4]; Flurtamone 125 g/ha) was 65, the “CYPES Obs” value (Cyperus esculentus L.; Flurtamone 62.5 g/ha) was 5 and the “CYPES Obs” value (Cyperus esculentus L.; Flurtamone 125 g/ha) was 8. The “CIRAR Obs” value ([5]; Flurtamone 62.5 g/ha) was 88, the “CIRAR Obs” value ([5]; Flurtamone 125 g/ha) was 95 and the “SETFA Obs” value (Setaria faberi Herrm.; Flurtamone 62.5 g/ha) was 0. The “SETFA Obs” value (Setaria faberi Herrm.; Flurtamone 125 g/ha) was 10.
For COC(=O)c1nc(-c2ccc(Cl)c(OC)c2F)cc(N)c1Cl [Cmpd 1, methyl 4-amino-3-chloro-6-(4-chloro-2-fluoro-3-methoxyphenyl)-pyridine-2-carboxylate], the “EPHHL Obs” value (Euphorbia heterohylla L.; Cmpd 1 1.25 g/ha) was 60, the “EPHHL Obs” value (Euphorbia heterohylla L.; Cmpd 1 2.50 g/ha) was 89 and the “EPHHL Obs” value (Euphorbia heterohylla L.; Cmpd 1 5.00 g/ha) was 92. For the same molecule, the “EPHHL Obs” value (Euphorbia heterohylla L.; [6]) was 92, the “IPOHE Obs” value (Ipomoea hederacea; Cmpd 1 1.25 g/ha) was 15 and the “IPOHE Obs” value (Ipomoea hederacea; Cmpd 1 2.50 g/ha) was 15. For the same molecule, the “IPOHE Obs” value (Ipomoea hederacea; Cmpd 1 5.00 g/ha) was 35, the “STEME Obs” value ([1]; Cmpd 1 1.25 g/ha) was 20 and the “STEME Obs” value ([1]; Cmpd 1 2.50 g/ha) was 58. For the same molecule, the “STEME Obs” value ([1]; Cmpd 1 5.00 g/ha) was 65, the “STEME Obs” value [1, 6] was 65 and the “VIOTR Obs” value (Viola tricolor L.; Cmpd 1 1.25 g/ha) was 5. The “VIOTR Obs” value (Viola tricolor L.; Cmpd 1 2.50 g/ha) was 15, the “VIOTR Obs” value (Viola tricolor L.; Cmpd 1 5.00 g/ha) was 23 and the “VIOTR Obs” value (Viola tricolor L.; [6]) was 23. The “CHEAL Obs” value (Chenpodium album L.; Cmpd 1 1.25 g/ha) was 60, the “CHEAL Obs” value (Chenpodium album L.; Cmpd 1 2.50 g/ha) was 83 and the “CHEAL Obs” value (Chenpodium album L.; Cmpd 1 5.00 g/ha) was 85. The “CHEAL Obs” value (Chenpodium album L.; [6]) was 85, the “ABUTH Obs” value ([2]; Cmpd 1 1.25 g/ha) was 78 and the “ABUTH Obs” value ([2]; Cmpd 1 2.50 g/ha) was 91. The “ABUTH Obs” value ([2]; Cmpd 1 5.00 g/ha) was 98, the “TRZAS Obs” value ([3]; Cmpd 1 1.25 g/ha) was 0 and the “TRZAS Obs” value ([3]; Cmpd 1 2.50 g/ha) was 0. The “TRZAS Obs” value ([3]; Cmpd 1 5.00 g/ha) was 0, the “AMARE Obs” value ([4]; Cmpd 1 1.25 g/ha) was 30 and the “AMARE Obs” value ([4]; Cmpd 1 2.50 g/ha) was 93. For the same molecule, the “AMARE Obs” value ([4]; Cmpd 1 5.00 g/ha) was 78, the “AMARE Obs” value [4, 6] was 78 and the “CYPES Obs” value (Cyperus esculentus L.; Cmpd 1 1.25 g/ha) was 58. The “CYPES Obs” value (Cyperus esculentus L.; Cmpd 1 2.50 g/ha) was 85, the “CYPES Obs” value (Cyperus esculentus L.; Cmpd 1 5.00 g/ha) was 81 and the “CYPES Obs” value (Cyperus esculentus L.; [6]) was 81. For the same molecule, the “CIRAR Obs” value ([5]; Cmpd 1 1.25 g/ha) was 20, the “CIRAR Obs” value ([5]; Cmpd 1 2.50 g/ha) was 55 and the “CIRAR Obs” value ([5]; Cmpd 1 5.00 g/ha) was 75. For the same molecule, the “CIRAR Obs” value [5, 6] was 75, the “SETFA Obs” value (Setaria faberi Herrm.; Cmpd 1 1.25 g/ha) was 0 and the “SETFA Obs” value (Setaria faberi Herrm.; Cmpd 1 2.50 g/ha) was 5. The “SETFA Obs” value (Setaria faberi Herrm.; Cmpd 1 5.00 g/ha) was 0.
In the case of O=C(Nc1ccc(F)cc1F)c1cccnc1Oc1cccc(C(F)(F)F)c1 [Diflufenican, N-(2,4-difluorophenyl)-2-[3-(trifluromethyl)phenoxy]-3-pyridinecarboxamide], the “EPHHL Obs” value (Euphorbia heterohylla L.; Diflufenican 25 g/ha) is reported as 43, the “EPHHL Obs” value (Euphorbia heterohylla L.; Diflufenican 50 g/ha) is reported as 50 and the “IPOHE Obs” value (Ipomoea hederacea; Diflufenican 25 g/ha) is reported as 10. For the same molecule, the “IPOHE Obs” value (Ipomoea hederacea; Diflufenican 50 g/ha) was 13, the “STEME Obs” value ([1]; Diflufenican 25 g/ha) was 10 and the “STEME Obs” value ([1]; Diflufenican 50 g/ha) was 15. For the same molecule, the “VIOTR Obs” value (Viola tricolor L.; Diflufenican 25 g/ha) was 10, the “VIOTR Obs” value (Viola tricolor L.; Diflufenican 50 g/ha) was 15 and the “CHEAL Obs” value (Chenpodium album L.; Diflufenican 25 g/ha) was 25. The “CHEAL Obs” value (Chenpodium album L.; Diflufenican 50 g/ha) was 25, the “ABUTH Obs” value ([2]; Diflufenican 25 g/ha) was 15 and the “ABUTH Obs” value ([2]; Diflufenican 50 g/ha) was 15. For the same molecule, the “TRZAS Obs” value ([3]; Diflufenican 25 g/ha) was 0, the “TRZAS Obs” value ([3]; Diflufenican 50 g/ha) was 0 and the “AMARE Obs” value ([4]; Diflufenican 25 g/ha) was 25. The “AMARE Obs” value ([4]; Diflufenican 50 g/ha) was 50, the “CYPES Obs” value (Cyperus esculentus L.; Diflufenican 25 g/ha) was 0 and the “CYPES Obs” value (Cyperus esculentus L.; Diflufenican 50 g/ha) was 0. The “CIRAR Obs” value ([5]; Diflufenican 25 g/ha) was 28, the “CIRAR Obs” value ([5]; Diflufenican 50 g/ha) was 25 and the “SETFA Obs” value (Setaria faberi Herrm.; Diflufenican 25 g/ha) was 8. The “SETFA Obs” value (Setaria faberi Herrm.; Diflufenican 50 g/ha) was 5.
With CC(C)N(C(=O)COc1nnc(C(F)(F)F)s1)c1ccc(F)cc1 [Flufenacet, N-(4-fluorophenyl)-N-(1-methylethyl)-2-[[5-(trifluoromethyl)-1,3,4-thiadiazol-2-yl]oxy]acetamide] the “EPHHL Obs” value (Euphorbia heterohylla L.; Flufenacet 30 g/ha) was 0, the “EPHHL Obs” value (Euphorbia heterohylla L.; Flufenacet 60 g/ha) was 0 and the “IPOHE Obs” value (Ipomoea hederacea; Flufenacet 30 g/ha) was 0. The “IPOHE Obs” value (Ipomoea hederacea; Flufenacet 60 g/ha) was 0, the “STEME Obs” value ([1]; Flufenacet 30 g/ha) was 0 and the “STEME Obs” value ([1]; Flufenacet 60 g/ha) was 0. For the same molecule, the “VIOTR Obs” value (Viola tricolor L.; Flufenacet 30 g/ha) was 0, the “VIOTR Obs” value (Viola tricolor L.; Flufenacet 60 g/ha) was 0 and the “CHEAL Obs” value (Chenpodium album L.; Flufenacet 30 g/ha) was 0. For the same molecule, the “CHEAL Obs” value (Chenpodium album L.; Flufenacet 60 g/ha) was 0, the “ABUTH Obs” value ([2]; Flufenacet 30 g/ha) was 0 and the “ABUTH Obs” value ([2]; Flufenacet 60 g/ha) was 0. The “TRZAS Obs” value ([3]; Flufenacet 30 g/ha) was 0, the “TRZAS Obs” value ([3]; Flufenacet 60 g/ha) was 0 and the “AMARE Obs” value ([4]; Flufenacet 30 g/ha) was 0. The “AMARE Obs” value ([4]; Flufenacet 60 g/ha) was 0, the “CYPES Obs” value (Cyperus esculentus L.; Flufenacet 30 g/ha) was 0 and the “CYPES Obs” value (Cyperus esculentus L.; Flufenacet 60 g/ha) was 0. For the same molecule, the “CIRAR Obs” value ([5]; Flufenacet 30 g/ha) was 0, the “CIRAR Obs” value ([5]; Flufenacet 60 g/ha) was 0 and the “SETFA Obs” value (Setaria faberi Herrm.; Flufenacet 30 g/ha) was 0. For the same molecule, the “SETFA Obs” value (Setaria faberi Herrm.; Flufenacet 60 g/ha) was 0.
